# What was measured:
# [1] = tested on: non-human primate iPSCs; conditions: Gori et al. Blood 2012; cited from earlier work
# [2] = tested on: H9 hESC-derived non-adherent hematopoietic progenitor cells; assay: Hematopoietic colony forming unit (CFU) assay (Example 1); assay type: cell-based, human
# Protocol: FIG. 5A. H9 hESCs were differentiated as spin EB exposed to Stage I mesodermal induction media for 6 days and transferred to hemato-endothelial induction media with either DMSO, 1 μM SR-1, or 10 nM TCDD treatment for an additional 6 days. On day 12 of total differentiation, 50,000 non-adherent cells were obtained in each treatment group and seeded in Methocult H4436. Following 14 days of growth, colony-forming units (CFUs) were quantified and scored based on morphology. Data are represented as number of CFUs per 5×10^4 cells. FIG. 5B. Distribution of CFU morphology for DMSO-, SR-1-, and TCDD-treated H9 hESCs. *p<0.05 as compared to DMSO-treated H9 hESC (Student's t-test) and represent an average of three biological replicates with error bars representing SEM. CFU-GEMM: Colony-Forming Unit Granulocyte/Erythrocyte/Macrophage/Megakaryocyte; CFU-M: Colony-Forming Unit Macrophage; CFU-GM: Colony-Forming Unit-Granulocyte/Macrophage; CFU-E: Colony-Forming Unit Erythroid; BFU-E: Burst-Forming Unit-Erythroid.
# Non-adherent, differentiated hematopoietic progenitor cells were harvested following 6 days growth as spin-EBs in Stage I conditions, followed by an additional 6 days growth in Stage II conditions. […] Plates were incubated in a 37° C. in a humidified atmosphere containing 5% CO2 for 14 days and were subsequently scored.
# [3] = tested on: hESCs (H9); assay: Hemato-endothelial differentiation of hESCs, flow cytometry, fold change vs DMSO (Example 2); assay type: cell-based, human
# Protocol: FIG. 7A. Schema of hESC differentiation into early hemato-endothelial cells as spin-embryoid bodies (spin-EBs). hESCs are made into spin-EBs at Day 0 and conditioned into mesoderm lineages for 6 days using defined cytokines (Stage 1). At Day 6, spin-EBs are transferred into hemato-endothelial culture media (Stage 2) to promote endothelial and hematopoietic cell differentiation. For these studies, cells are treated with either 1 μM SR-1, 10 nM TCDD, or DMSO vehicle control beginning at Day 6+0 with media exchanges and/or harvesting performed at Day 6+3, Day 6+6, and Day 6+9. FIG. 7B. Representative flow cytometry plots of one hESCs differentiation. Both adherent and non-adherent cell fractions are harvested at Day 6+3, Day 6+6, and Day 6+9 and assessed for endothelial cell (CD34^+CD31^+, CD34^+CD144^+) and hematopoietic progenitor cell (CD34^+CD43^+, CD34^+CD45^+) phenotypes. FIG. 7C. Fold change of the total percentage of each hemato-endothelial phenotype for SR-1 and TCDD treated hESCs normalized to matched DMSO treated controls. n=4-6, error bars represent SEM, *p<0.05 as compared to DMSO treated controls by student's t-test. N/A: Not applicable due to absence appreciable of CD34^+CD45^+ populations at Day 6+3 time point.
# Single-cell adapted hESCs (H9) were maintained on irradiated mouse embryonic fibroblasts (MEF) in ES growth media, as previously described in Ferrell et al. Stem Cells. 2015; 33(4):1130-41. hESCs were allowed to differentiate as spin-embryoid bodies (EBs) as previously described in Ferrell et al. and Ng et al. Nat. Protoc. 2008; 3(5):768-776 (FIG. 7A). In brief, hESCs were plated at 3,000 cells/100 μL in a round-bottom 96-well plate using serum-free BPEL media supplemented with 20 ng/mL BMP4, 40 ng/mL SCF, and 20 ng/mL VEGF (all R&D Systems, Minneapolis, Minn.). Cells were centrifuged to form embryoid bodies (defined as Day 0) and were incubated for 6 additional days (defined as Day 6) to promote mesoderm induction. To differentiate early endothelial and hematopoietic progenitor cells, Day 6 EBs were transferred to pre-gelatinized 24-well plates (approx. 8-16 EBs/well) with BEL media supplemented with 40 ng/mL SCF, 40 ng/mL VEGF, […] thrombopoietin (all R&D Systems, Minneapolis, Minn.), 30 ng/mL IL-3, and 30 ng/mL IL-6 (both PeproTech, Rocky Hill, N.J.). To modulate AHR activity, EBs were treated at Day 6+0 with DMSO, 1 μM SR-1 (Cellagen Technologies, San Diego, Calif.), or 10 nM 2,3,7,8-tetrachlorodibenzo-p-dioxin (TCDD) (Sigma-Aldrich, St. Louis, Mo.). Media was exchanged every 3 days with small molecule and cytokine supplementation. At indicated time points, non-adherent cell fractions were collected and saved while the remaining adherent fractions were treated with 0.05% trypsin containing 2% chicken serum. Adherent cells were combined with the non-adherent fractions for analysis, unless otherwise stated.
# The following additional antibodies were used (all anti-human): LFA-1 (CD11a/CD18)-APC-R700 (BD Biosciences), CD31-APC (eBioscience), CD33-APC (BD Biosciences), CD34-PECy7 (BD Biosciences), CD34-APC (BD Biosciences), CD41a-APC (BD Biosciences), CD43-APC (BD Biosciences), CD45-APC (BD Biosciences), CD56-PECy7 (BD Biosciences), CD56-BV421 (BD Biosciences), CD94-PerCP-Cy5.5 (BD Biosciences), CD117-PECy7 (BD Biosciences), CD117-APC (eBiosciences), CD144-APC (eBioscience). Samples were analyzed on either an LSRFortessa or LSRII flow cytometer (BD Biosciences). Gating was set relative to isotype controls of identical fluorophores. Data from flow cytometry was analyzed using FlowJo software (Treestar, Ashland, Oreg.).
Structure (SMILES),kinetics or quantity of CD34+ or CD34+CD31+ cells [1],phenotypic CD34+CD45+ cells [1],total number of colony-forming units (CFUs) [1],"increase in total number of colonies relative to DMSO-treated control cells ([2]; non-adherent cells harvested at Day 12, 1 μM SR-1) [fold]","proportion of CFU-M and CFU-GM ([2]; non-adherent cells harvested at Day 12, 1 μM SR-1, relative to DMSO)","total percentage of CD34+CD31+ cells, fold vs DMSO controls ([3]; Day 6+3, 1 μM SR-1) [fold]","total percentage of CD34+CD144+ cells, fold vs DMSO controls ([3]; Day 6+3, 1 μM SR-1) [fold]","total percentage of CD34+CD31+ hemato-endothelial cells, fold vs DMSO controls ([3]; Day 6+6, 1 μM SR-1) [fold]","total percentage of CD34+CD43+ hematopoietic progenitor cells, fold vs DMSO controls ([3]; Day 6+6, 1 μM SR-1) [fold]","CD34+CD45+ hematopoietic progenitor cells, fold change normalized to DMSO ([3]; Day 6+9, 10 nM TCDD)","total percent of CD34+CD31+ cells, fold change normalized to DMSO ([3]; Day 6+9, 10 nM TCDD)","total percent of CD34+CD43+ cells, fold change normalized to DMSO ([3]; Day 6+9, 10 nM TCDD)","total percent of CD34+CD144+ cells, fold change normalized to DMSO ([3]; Day 6+9, 10 nM TCDD)","total percent of CD34− hematopoietic cells ([3]; Day 6+9, 10 nM TCDD)"
"CC(C)n1cnc2c(NCCc3ccc(O)cc3)nc(-c3csc4ccccc34)nc21 [SR-1, StemReginin-1]",no differences,increase,did not enhance,4,increased proportion,1.58±0.28,1.71±0.22,1.62±0.12,1.36±0.12,1.40±0.11,,,,
"Clc1cc2c(cc1Cl)Oc1cc(Cl)c(Cl)cc1O2 [TCDD, 2,3,7,8-tetrachlorodibenzo-p-dioxin]",,,,,,,,,,0.44±0.06,0.49±0.06,0.67±0.09,0.33±0.13,increase
